≈ marks a conversion by molar mass, not a printed value.
Columns and labels:
Beta-1,3-glucan synthase = Beta-1,3-glucan synthase (Candida albicans, UniProt O13428); assay: Inhibition of Candida albicans BWP17 1,3-beta-glucan synthase
Nakaseomyces glabratus = assay: Antifungal activity against Candida glabrata C624; format: functional; details: read-out: MIC100
Candida albicans = assay: Antifungal activity against Candida albicans C693; format: functional; details: for MIC: read-out: MIC100
[1] = AUC (0 to 6 hrs) in rat at 10 mg/kg, po; format: ADME, organism-based; design: time < 6 hr, dose 10 mg/kg, route oral; details: plasma

Sequence of Beta-1,3-glucan synthase (O13428 whole entry): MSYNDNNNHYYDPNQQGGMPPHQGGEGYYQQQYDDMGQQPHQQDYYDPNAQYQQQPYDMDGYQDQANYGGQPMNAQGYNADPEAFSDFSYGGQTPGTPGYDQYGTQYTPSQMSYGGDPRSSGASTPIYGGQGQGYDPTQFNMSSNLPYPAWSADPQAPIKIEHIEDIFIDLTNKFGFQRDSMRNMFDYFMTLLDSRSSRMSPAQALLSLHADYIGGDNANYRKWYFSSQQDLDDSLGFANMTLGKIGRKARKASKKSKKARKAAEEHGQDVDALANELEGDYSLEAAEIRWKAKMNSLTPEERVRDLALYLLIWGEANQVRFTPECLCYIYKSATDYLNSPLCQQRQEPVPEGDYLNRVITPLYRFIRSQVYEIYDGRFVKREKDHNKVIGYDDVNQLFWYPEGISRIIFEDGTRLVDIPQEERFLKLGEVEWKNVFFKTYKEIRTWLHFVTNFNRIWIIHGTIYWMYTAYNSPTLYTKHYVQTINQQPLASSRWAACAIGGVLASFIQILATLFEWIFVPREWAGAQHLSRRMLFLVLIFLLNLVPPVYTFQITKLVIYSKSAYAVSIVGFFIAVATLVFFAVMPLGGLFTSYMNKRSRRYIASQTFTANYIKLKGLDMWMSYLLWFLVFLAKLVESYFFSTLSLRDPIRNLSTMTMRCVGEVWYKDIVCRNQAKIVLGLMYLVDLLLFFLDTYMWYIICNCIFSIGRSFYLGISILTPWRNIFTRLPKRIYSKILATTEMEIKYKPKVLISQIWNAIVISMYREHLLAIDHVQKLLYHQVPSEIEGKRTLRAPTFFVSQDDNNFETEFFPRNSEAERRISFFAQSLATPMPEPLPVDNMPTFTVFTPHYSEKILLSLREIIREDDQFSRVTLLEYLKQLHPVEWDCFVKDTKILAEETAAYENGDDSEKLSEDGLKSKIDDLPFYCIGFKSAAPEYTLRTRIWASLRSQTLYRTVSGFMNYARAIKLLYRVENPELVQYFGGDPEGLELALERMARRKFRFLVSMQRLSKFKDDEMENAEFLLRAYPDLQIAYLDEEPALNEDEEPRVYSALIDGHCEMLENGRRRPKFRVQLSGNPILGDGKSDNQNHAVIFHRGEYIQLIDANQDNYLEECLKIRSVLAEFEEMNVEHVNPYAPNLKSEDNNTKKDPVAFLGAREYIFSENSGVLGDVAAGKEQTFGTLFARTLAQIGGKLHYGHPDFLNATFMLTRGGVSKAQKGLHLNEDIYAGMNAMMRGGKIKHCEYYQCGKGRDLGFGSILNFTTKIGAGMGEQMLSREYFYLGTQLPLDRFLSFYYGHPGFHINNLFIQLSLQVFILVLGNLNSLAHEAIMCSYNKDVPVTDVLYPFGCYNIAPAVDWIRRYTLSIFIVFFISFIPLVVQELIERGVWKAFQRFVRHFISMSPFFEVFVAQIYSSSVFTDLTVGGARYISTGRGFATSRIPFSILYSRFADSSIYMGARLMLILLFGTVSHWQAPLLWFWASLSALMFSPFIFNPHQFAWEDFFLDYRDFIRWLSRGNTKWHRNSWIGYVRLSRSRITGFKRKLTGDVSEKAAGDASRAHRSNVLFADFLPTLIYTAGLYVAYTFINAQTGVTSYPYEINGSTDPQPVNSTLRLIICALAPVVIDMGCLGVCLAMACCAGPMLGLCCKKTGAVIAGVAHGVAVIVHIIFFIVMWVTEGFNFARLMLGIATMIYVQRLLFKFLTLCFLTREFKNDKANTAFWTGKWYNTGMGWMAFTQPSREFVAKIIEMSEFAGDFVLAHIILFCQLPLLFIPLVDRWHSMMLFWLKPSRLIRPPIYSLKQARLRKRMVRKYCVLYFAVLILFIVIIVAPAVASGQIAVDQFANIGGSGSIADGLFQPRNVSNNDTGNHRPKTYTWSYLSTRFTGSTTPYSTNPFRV

Structure (SMILES) | IC50 (Beta-1,3-glucan synthase) [nM] | MIC (Nakaseomyces glabratus) [µg/mL] | MIC (Candida albicans) [µg/mL] | MIC50 (Candida albicans) [µg/mL] | AUC(0-t) at 6 h [1] [ng·h/mL]
CCOCCOc1c(N2CCN(S(=O)(=O)Cc3ccccc3)CC2)cnn(-c2ccccc2)c1=O | 1810 | 0.1 (≈ 0.201 µM) | 3.13 (≈ 6.28 µM) |  | 
CCOCCOc1cc(-c2ccccc2)nnc1N1CCN(S(=O)(=O)Cc2ccccc2)CC1 | 76700 | > 25 | > 25 |  | 
CCOCCOc1c(N2CCN(S(=O)(=O)Cc3ccccc3)CC2)c(C)nn(-c2ccccc2)c1=O | 139000 | 25 (≈ 48.8 µM) | > 50 |  | 
CCOCCOc1nn(-c2ccccc2)c(=O)c(OCCOCC)c1N1CCN(S(=O)(=O)Cc2ccccc2)CC1 | 7160 | 6.25 (≈ 10.7 µM) | > 50 |  | 
CCOCCOc1cc(-c2ccccc2)ccc1N1CCN(S(=O)(=O)Cc2ccccc2)CC1 | 287000 | > 50 | > 50 |  | 
CCCCCCc1c(N2CCN(S(=O)(=O)Cc3ccccc3)CC2)ncn(-c2cccc(Cl)c2)c1=O | 2480 |  | > 25 | 9 (≈ 17 µM) | 
O=c1c(-c2ccc(F)cc2)c(N2CCN(S(=O)(=O)Cc3ccccc3)CC2)cnn1-c1ccccc1 |  | 0.05 (≈ 0.0991 µM) | 6.25 (≈ 12.4 µM) |  | 
O=c1c(-c2ccc(F)cc2)c(N2CCN(S(=O)(=O)Cc3ccccc3)CC2)ccn1-c1ccccc1 | 4770 | 0.78 (≈ 1.55 µM) | > 50 |  | 
CC(C)(C)S(=O)(=O)N1CCN(c2cnn(-c3cccc(Cl)c3)c(=O)c2OC2CCCC2)CC1 | 828 | 0.1 (≈ 0.202 µM) |  | 0.78 (≈ 1.58 µM) | 
O=c1c(OC2CCCC2)c(N2CCN(S(=O)(=O)C3CCCC3)CC2)cnn1-c1cccc(Cl)c1 | 1220 | 0.1 (≈ 0.197 µM) | 3.13 (≈ 6.17 µM) |  | 
COCCS(=O)(=O)N1CCN(c2cnn(-c3cccc(Cl)c3)c(=O)c2OC2CCCC2)CC1 | 865 | 0.2 (≈ 0.402 µM) | 3.13 (≈ 6.3 µM) |  | 
O=C(O)CCS(=O)(=O)N1CCN(c2cnn(-c3cccc(Cl)c3)c(=O)c2OC2CCCC2)CC1 | 214000 | > 50 | > 50 |  | 
O=c1c(OC2CCCC2)c(N2CCN(S(=O)(=O)c3ccsc3)CC2)cnn1-c1cccc(Cl)c1 | 806 | 0.05 (≈ 0.096 µM) | 0.78 (≈ 1.5 µM) |  | 
O=c1c(OC2CCCC2)c(N2CCN(S(=O)(=O)c3ccccc3)CC2)cnn1-c1cccc(Cl)c1 |  | 0.3 (≈ 0.582 µM) | 3.1 (≈ 6.02 µM) |  | 
O=c1c(OC2CCCC2)c(N2CCN(S(=O)(=O)c3ccc4ccccc4c3)CC2)cnn1-c1cccc(Cl)c1 | 131 | 1.04 (≈ 1.84 µM) | 33.4 (≈ 59.1 µM) |  | 
Cn1ccc2ccc(S(=O)(=O)N3CCN(c4cnn(-c5cccc(Cl)c5)c(=O)c4OC4CCCC4)CC3)cc21 | 282 | 0.2 (≈ 0.352 µM) |  | 0.78 (≈ 1.37 µM) | 
O=c1c(OC2CCCC2)c(N2CCN(S(=O)(=O)Cc3ccccc3)CC2)cnn1-c1cccc(Cl)c1 | 378 | 0.02 (≈ 0.0378 µM) | 0.39 (≈ 0.737 µM) |  | 

Structure (SMILES) | IC50 (Beta-1,3-glucan synthase) [nM] | MIC (Nakaseomyces glabratus) [µg/mL] | MIC (Candida albicans) [µg/mL] | MIC50 (Candida albicans) [µg/mL] | AUC(0-t) at 6 h [1] [ng·h/mL]
O=c1c(OC2CCCC2)c(N2CCN(S(=O)(=O)Cc3ccsc3)CC2)cnn1-c1cccc(Cl)c1 | 411 | 0.02 (≈ 0.0374 µM) | 2.1 (≈ 3.92 µM) |  | 
O=c1c(OC2CCCC2)c(N2CCN(S(=O)(=O)CCc3ccccc3)CC2)cnn1-c1cccc(Cl)c1 | 1470 | 0.08 (≈ 0.147 µM) | 5 (≈ 9.21 µM) |  | 
O=c1c(OC2CCCC2)c(N2CCN(S(=O)(=O)C3Cc4ccccc4C3)CC2)cnn1-c1cccc(Cl)c1 | 522 | 0.1 (≈ 0.18 µM) | 1.56 (≈ 2.81 µM) |  | 
O=c1c(OC2CCCC2)c(N2CCN(S(=O)(=O)Cc3noc4ccccc34)CC2)cnn1-c1cccc(Cl)c1 | 140 | 0.05 (≈ 0.0877 µM) | 0.78 (≈ 1.37 µM) |  | 
O=c1c(OC2CCCC2)c(N2CCN(S(=O)(=O)CCCc3ccccc3)CC2)cnn1-c1cccc(Cl)c1 | 41300 | 3.13 (≈ 5.62 µM) | > 50 |  | 
O=c1c(OC2CCCC2)c(N2CCN(S(=O)(=O)Cc3ccc(F)cc3)CC2)cnn1-c1cccc(Cl)c1 |  | 0.05 (≈ 0.0914 µM) | 1.56 (≈ 2.85 µM) |  | 
Cc1ccc(CS(=O)(=O)N2CCN(c3cnn(-c4cccc(Cl)c4)c(=O)c3OC3CCCC3)CC2)cc1 |  | 0.08 (≈ 0.147 µM) | 0.31 (≈ 0.571 µM) |  | 
O=c1c(OC2CCCC2)c(N2CCN(S(=O)(=O)Cc3cccc(C(F)(F)F)c3)CC2)cnn1-c1cccc(Cl)c1 |  | 0.78 (≈ 1.31 µM) | > 50 |  | 
N#Cc1ccc(CS(=O)(=O)N2CCN(c3cnn(-c4cccc(Cl)c4)c(=O)c3OC3CCCC3)CC2)cc1 |  | 0.02 (≈ 0.0361 µM) | 0.13 (≈ 0.235 µM) |  | 
CCOC(=O)c1ccc(CS(=O)(=O)N2CCN(c3cnn(-c4cccc(Cl)c4)c(=O)c3OC3CCCC3)CC2)cc1 |  | 0.78 (≈ 1.3 µM) | 6.25 (≈ 10.4 µM) |  | 
O=c1c(OC2CCCC2)c(N2CCN(S(=O)(=O)Cc3cccc(B(O)O)c3)CC2)cnn1-c1cccc(Cl)c1 |  | 0.42 (≈ 0.733 µM) | 13.4 (≈ 23.4 µM) |  | 
O=C(O)c1ccc(CS(=O)(=O)N2CCN(c3cnn(-c4cccc(Cl)c4)c(=O)c3OC3CCCC3)CC2)cc1 |  | 25 (≈ 43.6 µM) | > 50 |  | 130
O=c1c(OC2CCCC2)c(N2CCN(S(=O)(=O)Cc3ccc([N+](=O)[O-])cc3)CC2)cnn1-c1cccc(Cl)c1 |  | 0.05 (≈ 0.0871 µM) | 0.78 (≈ 1.36 µM) |  | 
O=c1c(OC2CCCC2)c(N2CCN(S(=O)(=O)Cc3ccncc3)CC2)cnn1-c1cccc(Cl)c1 |  | < 0.02 | 0.2 (≈ 0.377 µM) |  | 60
Nc1ccccc1CS(=O)(=O)N1CCN(c2cnn(-c3cccc(Cl)c3)c(=O)c2OC2CCCC2)CC1 |  | 0.03 (≈ 0.0551 µM) | 0.35 (≈ 0.643 µM) |  | 290
Nc1cccc(CS(=O)(=O)N2CCN(c3cnn(-c4cccc(Cl)c4)c(=O)c3OC3CCCC3)CC2)c1 |  | 0.39 (≈ 0.717 µM) | 3.13 (≈ 5.75 µM) |  | 50
Nc1ccc(CS(=O)(=O)N2CCN(c3cnn(-c4cccc(Cl)c4)c(=O)c3OC3CCCC3)CC2)cc1 |  | 0.2 (≈ 0.368 µM) | 0.78 (≈ 1.43 µM) |  | 80

— ChEMBL document CHEMBL1770109, “SAR studies of pyridazinone derivatives as novel glucan synthase inhibitors” (Bioorg Med Chem Lett, 2011)
